Experiment [1] concerns primary keratinocytes stimulated by polyinosinic:polycytidylic acid. Nature of the experiment: Cellular activity broad panel: reduction of cytokine/chemokine levels in stimulated primary keratinocytes. It counts as cell-based. To be noted: Homo sapiens, Keratinocyte. As to the method:
• 1. Seed Primary Human Keratinocytes cells (PHK) at 9000 cells/well in a flat bottom 96 well plate. • 2. […] Cells are cultured for 24 hr prior to TLR ligand stimulation (polyinosinic:polycytidylic acid). • 4. Cells are treated with 20 μg/mL polyinosinic:polycytidylic acid for 48 hrs in 180 μL of media and treated for different compounds or controls. • 5. Supernatant is collected and Chemokine and Cytokines analysis is performed by Magpix-Luminex. Immunoassay Procedure Day 1 • 1. Add 200 μL of Assay Buffer per well. Shake 10 min, RT. Decant. • 2. Add 25 μL of Standard or Control to the appropriate wells. • 3. Add 25 μL of Assay Buffer to background and sample wells. • 4. Add 25 μL of cell media to background, standard and control wells. • 5. Add 25 μL neat samples to sample wells. • 6. Add 25 μL of Beads to each well. • 7. Incubate overnight (16-18 hr) at 4° C. Day 2 • 8. Remove well contents and wash 2× with 200 μL Wash buffer. • 9. Add 25 μL of Detection Antibodies per well. • 10. Incubate 1 hr at RT (20-25° C.). • 11. […] Incubate for 30 min at RT. • 13. Remove well contents and wash 2× with 200 μL Wash buffer. • 14. Add 150 μL of Wash Buffer per well. Resuspend the beads on a plate shaker for 5 min. • 15. Read on Luminex 100 μl (50 beads per bead set).

Experiment [2] concerns CD4+ T-cells stimulated by CD2, CD3 and CD28 antibodies. Nature of the experiment: Cellular activity IL-4: reduction of IL-4 levels in activated CD4+ T-cells. It counts as cell-based, human. To be noted: Homo sapiens, T-cell. On the procedure: • 1. CD4^+ T-cells are isolated from cryopreserved human peripheral blood mononuclear cells (PBMCs) using EasySep™ Kit (Cat. No. 17952, Stemcell Technologies). • 2. CD2, CD3 and CD28 antibodies coated beads from T cell Activation/Expansion Kit (Cat. No. 130-091-441, Miltenyi Biotec) are added to the CD4^+ T-cells at a bead-to-cell ratio of 1:2. • 3. CD4^+ T-cells along with the beads are seeded at 2×10^5 cells/well in a round bottom 96-well plate and treated with different compounds and controls in a total volume of 200 μl. • 4. The cells are cultured for 48 hrs at 37° C., 5% CO2. • 5. Supernatant is collected and IL-4 is analysed by ELISA.

In another experiment the target is BRD4 BD1 (Homo sapiens (Human), UniProt O60885). In words: Bromodomain binding assay (T7 phage display, qPCR), BRD4 BD1. The note with it: for pKd: read-out: BRD4 BD1 Kd.
Where [3] appears, read: disease relevant markers, read-out: cellular EC50 values in stimulated human primary keratinocytes.
The mark [4] stands for this setting: poly I:C 20 μg/mL, 48 hrs, read-out: EC50 reduction of CCL2.
Setting [5] is: poly I:C 20 μg/mL, 48 hrs, read-out: EC50 reduction of CCL20.
Where [6] appears, read: poly I:C 20 μg/mL, 48 hrs, read-out: EC50 reduction of CCL27.
The mark [7] stands for this setting: poly I:C 20 μg/mL, 48 hrs, read-out: EC50 reduction of CXCL9.
Where [8] appears, read: poly I:C 20 μg/mL, 48 hrs, read-out: EC50 reduction of GM-CSF.
The mark [9] stands for this setting: poly I:C 20 μg/mL, 48 hrs, read-out: EC50 reduction of IL-1a.
Where [10] appears, read: poly I:C 20 μg/mL, 48 hrs, read-out: EC50 reduction of IL-6.
The mark [11] stands for this setting: poly I:C 20 μg/mL, 48 hrs, read-out: EC50 reduction of IL-8.
The mark [12] stands for this setting: poly I:C 20 μg/mL, 48 hrs, read-out: EC50 reduction of TNF-a.
Setting [13] is: poly I:C 20 μg/mL, 48 hrs, read-out: EC50 reduction of TSLP.
Setting [14] is: 48 hrs, ELISA, read-out: EC50 reduction of IL-4 levels.
[15] abbreviates: read-out: cellular EC50 values, reduction of IL-4 levels.

Experimental findings from patent US12384777B2 (Tay Therapeutics Limited, priority 2019, dated 2025) are described below.

pEC50, pKd: −log10 of the molar value. Read-outs that look alike come from different tables or passages of the source. Some results are limits rather than exact numbers.

By pEC50 is commonly meant the negative decadic logarithm of the EC50, by convention in mol/L. Broadly, the pKd is the negative decadic logarithm of the Kd, by convention in mol/L. On to `Cn1cc(-c2c(O)cccc2Oc2ccccc2)c2cc[nH]c2c1=O` [Example 3, 4-(2-hydroxy-6-phenoxyphenyl)-6-methyl-1,6-dihydro-7H-pyrrolo[2,3-c]pyridin-7-one], for which the pEC50 is more than 7.00 in experiment [1] (setting [3]); not below 8.00 in experiment [1] (setting [4]); not below 8.00 in experiment [1] (setting [5]); 7.00 to 8.00 in experiment [1] (setting [6]); not below 8.00 in experiment [1] (setting [7]); not below 8.00 in experiment [1] (setting [8]). The pEC50 was not below 8.00 in experiment [1] (setting [9]); 7.00 to 8.00 in experiment [1] (setting [10]); not below 8.00 in experiment [1] (setting [11]); not below 8.00 in experiment [1] (setting [12]); not below 8.00 in experiment [1] (setting [13]); 7.00 to 8.00 in experiment [2] (setting [14]). Besides, the pEC50 in experiment [2] (setting [15]) is more than 7.00. Further, at BRD4 BD1, the pKd was 7.00 to 8.00.
Consider `Cn1cc(-c2cccc(O)c2Oc2ccccc2)c2cc[nH]c2c1=O` [Example 1, 4-(3-hydroxy-2-phenoxyphenyl)-6-methyl-1,6-dihydro-7H-pyrrolo[2,3-c]pyridin-7-one], for which the pEC50 was more than 7.00 in experiment [1] (setting [3]); 7.00 to 8.00 in experiment [1] (setting [4]); 7.00 to 8.00 in experiment [1] (setting [5]); 7.00 to 8.00 in experiment [1] (setting [6]); not below 8.00 in experiment [1] (setting [7]); not below 8.00 in experiment [1] (setting [8]). For the same compound, the pEC50 was not below 8.00 in experiment [1] (setting [9]); 7.00 to 8.00 in experiment [1] (setting [10]); not below 8.00 in experiment [1] (setting [11]); not below 8.00 in experiment [1] (setting [12]); 7.00 to 8.00 in experiment [1] (setting [13]); not below 8.00 in experiment [2] (setting [14]). For the same compound, the pEC50 in experiment [2] (setting [15]) is more than 7.00. Besides, the pKd at BRD4 BD1 is not below 8.00. Moreover, the “BRD4(1) % Ctrl” value at BRD4 BD1 (single point, screened at 30 times Kd, lower numbers indicate stronger hits) was determined as 0 % Ctrl.
